Test results reported in patent publication US20120231072A1, “THERMO-RESPONSIVE HYDROGEL COMPOSITIONS” (Chemisches Institut Schaefer AG, priority 2011, published 2012).
Counter-ions that a name gives are not always drawn. Like-named read-outs stand apart in the source and are kept apart here.

Legend:
[1] = Drug encapsulation efficiency in PLGA particles; assay type: physicochemical
Experimental: The clear organic mixture was emulsified into an external aqueous phase (5 ml, 2% w/v PVA) with vortexing for 20 seconds followed by sonication on ice at 55 W for 5 minutes. […] Nanospheres were harvested by ultracentrifugation at 16,000 g for 10 min, after which the resultant pellet was re-suspended in DI water by sonication and washed twice with DI water. […] Dynamic light scattering (DLS) was used to characterize the size of the nanospheres. To investigate nanosphere encapsulation in thermo-responsive hydrogels, nanospheres were added into the hydrogel precursor solutions at 0, 2.5, 5, and 10 mg/ml prior to polymerization initiated by the addition of TEMED. The hydrogels were then washed 5 times with PBS every 20 minutes, as described for hydrogels with no nanospheres. Swelling ratio was tested for hydrogels with varying concentration of nanospheres at both room and body temperature.
The drug concentration was determined spectrophotometrically at 240 nm. […] The encapsulation efficiency was calculated as (actual drug loaded/total drug used)×100%.

[2] = system: endotoxin-induced uveitis (EIU) animal model; settings: 24 hours after intravitreal treatment; LPS alone ~45% vasodilation
Experimental: Adult male Lewis rats (weight 310-350 g) were used as an endotoxin-induced uveitis (EIU) animal model. LPS from Salmonella Typhimurium (Sigma Aldrich, St. Louis, Mo.) was mixed with PBS immediately prior to the injection. The animals were divided as followed:
Control: intravitreal injection of LPS at day 0. ˜5 μl intravitreal injection of control gel (no dexamethasone) at 24 hrs after the LPS induction (day 1);
Treatment control: intravitreal injection of LPS at day 0. ˜5 μl intravitreal injection of dexamethasone (10 mg/ml dose, Sigma) at 24 hrs after the LPS induction;
Treatment 1: intravitreal injection of LPS at day 0. ˜5 μl intravitreal injection of dexamethasone hydrogel (10 mg/ml dose, Sigma) at 24 hrs after the LPS induction; and
Treatment 2: intravitreal injection of LPS at day 0. ˜5 μl subconjunctival injection of dexamethasone hydrogel (10 mg/ml dose, Sigma) at 24 hrs after the LPS induction.
The dexamethasone was loaded by equilibrating 0.1 ml of hydrogel in 2 ml of dexamethasone drug solution. SLO images and blood flow measurement were obtained before the LPS induction, 1, 2, 3, and 6 days after the LPS (and dexametheasone treatment). Furthermore, in one animal, the thermo-hydrogel (control) was applied directly to the cornea (simulate eyedrops).

[3] = cited from earlier work

Row | encapsulation efficiency ([1]; dexamethasone 1:2 (w/w) of PLGA) | encapsulation efficiency ([1]; dexamethasone 1:10 (w/w) of PLGA) | P (oil/water) (Methylene chloride + methanol / 0.2% PVA) | P (oil/water) (Methylene chloride + methanol / 2% PVA) | P (oil/water) (Methylene chloride + methanol / 2% PVA + 0.25N (NH4)2SO4) | P (oil/water) (Methylene chloride + methanol / 2% PVA + 0.5N NaCl) | SMILES | degree of dilation of retinal vessels [2] | solubility in water [3]
1 | 7.5% | 2.5% |  |  |  |  | C[C@@H]1C[C@H]2[C@@H]3CCC4=CC(=O)C=C[C@]4(C)[C@@]3(F)[C@@H](O)C[C@]2(C)[C@@]1(O)C(=O)CO [dexamethasone] | ~15% | 
2 |  |  | 0.06 | 0.15 | 0.86 | 0.26 | C[C@@H]1C[C@H]2[C@@H]3CCC4=CC(=O)C=C[C@]4(C)[C@@]3(F)[C@@H](O)C[C@]2(C)[C@@]1(O)C(=O)COP(=O)(O)O [DSP, Dexamethasone 21-phosphate disodium salt] |  | > 50 mg/mL
